Experimental data as given in the NIST ThermoML archive (doi:10.1021/acs.jced.8b00387).

Assay: xn = mol fraction of the nth substance listed
Details: for viscosity / mass density / speed of sound: 102 kPa, Liquid; for viscosity: Concentric cylinders viscometry; for mass density: Vibrating tube method; for speed of sound: Frequency=3 MHz, Single path-length method; for surface tension liquid-gas: 294 K, Pendant drop shape

CC(CC(C)(C)C)CC(C)(C)C [2,2,4,6,6-pentamethylheptane] + CCCCCCc1ccccc1
Details	mass density [kg/m3]	speed of sound [m/s]	viscosity [mPa·s]
253.15 K, x2 = 0.1	784.1	–	3
253.15 K, x2 = 0.2065	795	–	3.03
253.15 K, x2 = 0.3009	804.9	–	3.08
253.15 K, x2 = 0.3968	815.2	–	3.19
253.15 K, x2 = 0.5001	826.8	–	–
253.15 K, x2 = 0.5004	–	–	3.31
253.15 K, x2 = 0.6	838.5	–	3.47
253.15 K, x2 = 0.6998	850.5	–	3.7
253.15 K, x2 = 0.7997	863.5	–	3.93
253.15 K, x2 = 0.8999	875.7	–	4.2
288.15 K, x2 = 0.1	758.47	1238.9	–
288.15 K, x2 = 0.2065	769.17	1255.2	–
288.15 K, x2 = 0.3009	778.97	1270.3	–
288.15 K, x2 = 0.3968	789.42	1286.2	–
288.15 K, x2 = 0.5001	800.56	–	–
288.15 K, x2 = 0.5004	–	1302.9	–
288.15 K, x2 = 0.6	812.08	1320.1	–
288.15 K, x2 = 0.6998	824	1338	–
288.15 K, x2 = 0.7997	836.31	1356.4	–
288.15 K, x2 = 0.8999	849.13	1375.5	–
293.15 K, x2 = 0.1	754.83	1219	1.31
293.15 K, x2 = 0.2065	765.51	1235.7	1.31
293.15 K, x2 = 0.3009	775.3	1250.6	1.31
293.15 K, x2 = 0.3968	785.5	1266	1.35
293.15 K, x2 = 0.5001	796.87	–	–
293.15 K, x2 = 0.5004	–	1283.3	1.36
293.15 K, x2 = 0.6	808.37	1300.6	1.4
293.15 K, x2 = 0.6998	820.27	1318.6	1.46
293.15 K, x2 = 0.7997	832.57	1337.1	1.51
293.15 K, x2 = 0.8999	845.36	1356.2	1.56
303.15 K, x2 = 0.1	747.53	1180	1.12
303.15 K, x2 = 0.2065	758.19	1197.2	1.13
303.15 K, x2 = 0.3009	767.96	1211.8	1.14
303.15 K, x2 = 0.3968	778.14	1227.4	1.15
303.15 K, x2 = 0.5001	789.48	–	–
303.15 K, x2 = 0.5004	–	1244.8	1.17
303.15 K, x2 = 0.6	800.94	1262.2	1.2
303.15 K, x2 = 0.6998	812.8	1280.3	1.25
303.15 K, x2 = 0.7997	825.06	1299	1.29
303.15 K, x2 = 0.8999	837.82	1318.2	1.33
313.15 K, x2 = 0.1	740.2	1141.9	0.957
313.15 K, x2 = 0.2065	750.84	1159.3	0.962
313.15 K, x2 = 0.3009	760.6	1174	0.967
313.15 K, x2 = 0.3968	770.75	1189.7	0.979
313.15 K, x2 = 0.5001	782.06	–	–
313.15 K, x2 = 0.5004	–	1207.2	1
313.15 K, x2 = 0.6	793.5	1224.7	1.02
313.15 K, x2 = 0.6998	805.33	1243	1.06
313.15 K, x2 = 0.7997	817.55	1261.7	1.09
313.15 K, x2 = 0.8999	830.26	1281	1.12
323.15 K, x2 = 0.1	732.84	1104.7	0.848
323.15 K, x2 = 0.2065	743.45	1122.2	0.853
323.15 K, x2 = 0.3009	753.21	1136.9	0.861
323.15 K, x2 = 0.3968	763.34	1152.8	0.873
323.15 K, x2 = 0.5001	774.63	–	–
323.15 K, x2 = 0.5004	–	1170.4	0.889
323.15 K, x2 = 0.6	786.03	1188.1	0.911
323.15 K, x2 = 0.6998	797.82	1206.4	0.943
323.15 K, x2 = 0.7997	810.01	1225.2	0.964
323.15 K, x2 = 0.8999	822.68	1244.6	0.992
333.15 K, x2 = 0.1	725.44	1068.5	0.749
333.15 K, x2 = 0.2065	736.04	1085.8	0.753
333.15 K, x2 = 0.3009	745.77	1101	0.758
333.15 K, x2 = 0.3968	755.89	1117	0.768
333.15 K, x2 = 0.5001	767.15	–	–
333.15 K, x2 = 0.5004	–	1134.6	0.783
333.15 K, x2 = 0.6	778.54	1152.5	0.803
333.15 K, x2 = 0.6998	790.29	1170.8	0.828
333.15 K, x2 = 0.7997	802.45	1189.6	0.844
333.15 K, x2 = 0.8999	815.08	1209.1	0.87

Details	surface tension liquid-gas [mN/m]
x2 = 0.1	21.9
x2 = 0.2065	22.5
x2 = 0.3009	23.1
x2 = 0.3968	23.5
x2 = 0.5001	24.1
x2 = 0.6	24.7
x2 = 0.6998	25.5
x2 = 0.7997	26.5
x2 = 0.8999	27.7
